# From PMC2931804 (Clinical cancer research : an official journal of the …, 2010)
# Values joined by “and” are separate entries in the source; they are usually repeats but may differ in a detail not shown here. Equal values may be shown once.
# Legend:
# [1] = system: dihydropyrimidine dehydrogenase (DPD); test: DPD activity assay in peripheral blood mononuclear cells; assay type: in vivo, human
# [2] = 300 mg orally twice daily × 1 week with FOLFOX; cited from earlier work
# [3] = Vorinostat serum pharmacokinetics; assay type: in vivo, human
# [4] = FU plasma pharmacokinetics; assay type: in vivo, human; details: at the MTD
# [5] = 600 mg orally twice daily, individual patients, cycle 2
# [6] = 1,700 mg orally once daily, individual patients, cycle 2
compound,measurement,setting,value
"O=C(CCCCCCC(=O)Nc1ccccc1)NO [vorinostat, suberoylanilide hydroxamic acid]",Mean DPD level,"[1]; once-daily MTD arm, four patients, day 2 of cycle 1, baseline 0.189",0.142 nmol/min/mg protein
same,Mean DPD level,"[1]; once-daily MTD arm, four patients, day 3 of cycle 1, baseline 0.189",0.138 nmol/min/mg protein
same,Mean DPD level,"[1]; once-daily MTD arm, four patients, day 7 of cycle 1, baseline 0.189",0.126 nmol/min/mg protein
same,Mean DPD level,"[1]; twice-daily MTD arm, three patients, day 2 of cycle 1, baseline 0.253",0.199 nmol/min/mg protein
same,Mean DPD level,"[1]; twice-daily MTD arm, three patients, day 3 of cycle 1, baseline 0.253",0.138 nmol/min/mg protein
same,Mean DPD level,"[1]; twice-daily MTD arm, three patients, day 7 of cycle 1, baseline 0.253",0.198 nmol/min/mg protein
same,Differences in DPD levels over time,"[1]; within once-daily or twice-daily cohorts, one way ANOVA (P > 0.05)",not statistically significant
same,maximum vorinostat serum concentrations,[2],< 1.5 µmol/L
same,AUC0–8,[3]; [5],7.8 µM·h
same,Cmax,[3]; [5],4.99 µM
same,Tmax,[3]; [5],2 h and 4 h
same,Cmax,"[3]; 600 mg orally twice daily, mean of 3 patients (SD 1.51)",3.46 µM
same,AUC0–8,[3]; [6],35.1 µM·h and 2.6 µM·h and 26 µM·h
same,Cmax,[3]; [6],6.4 µM
same,Tmax,[3]; [6],1 h
same,Cmax,"[3]; 1,700 mg orally once daily, mean of 3 patients (SD 3.09)",4.49 µM
same,half-life,"[3]; human, oral, half-life, general statement in discussion",~2 h
same,Pharmacokinetic interactions between vorinostat and FU,[4],No pharmacokinetic interactions
